Measurements published in article PMC2493416 (Anesthesia and analgesia, 2008).

Experiments:
[1] = target: N-methyl-D-aspartate receptor (NMDAR) NR1/NR2B (Homo sapiens, UniProt Q05586+Q13224); test: two-electrode voltage clamp in oocytes, inhibition concentration-response; type: cell-based
[2] = target: γ-aminobutyric acid type A receptor (GABAAR) α1β2γ2s (Homo sapiens, UniProt P14867+P47870); test: whole-cell patch clamp, shift of GABA EC50; type: cell-based
Sequence of γ-aminobutyric acid type A receptor (GABAAR) α1β2γ2s (P14867 28-456): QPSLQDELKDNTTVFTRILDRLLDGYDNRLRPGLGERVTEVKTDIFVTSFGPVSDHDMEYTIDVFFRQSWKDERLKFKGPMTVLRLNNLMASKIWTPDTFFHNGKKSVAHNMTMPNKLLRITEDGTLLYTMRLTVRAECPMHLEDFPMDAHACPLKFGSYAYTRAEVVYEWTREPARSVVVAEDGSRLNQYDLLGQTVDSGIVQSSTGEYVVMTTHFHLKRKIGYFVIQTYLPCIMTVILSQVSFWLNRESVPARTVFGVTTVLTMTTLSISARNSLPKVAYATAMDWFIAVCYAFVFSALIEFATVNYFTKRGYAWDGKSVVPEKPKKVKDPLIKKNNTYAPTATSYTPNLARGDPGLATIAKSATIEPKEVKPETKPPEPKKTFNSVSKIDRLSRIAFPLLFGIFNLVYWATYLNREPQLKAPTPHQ
Sequence of γ-aminobutyric acid type A receptor (GABAAR) α1β2γ2s (P47870 26-512): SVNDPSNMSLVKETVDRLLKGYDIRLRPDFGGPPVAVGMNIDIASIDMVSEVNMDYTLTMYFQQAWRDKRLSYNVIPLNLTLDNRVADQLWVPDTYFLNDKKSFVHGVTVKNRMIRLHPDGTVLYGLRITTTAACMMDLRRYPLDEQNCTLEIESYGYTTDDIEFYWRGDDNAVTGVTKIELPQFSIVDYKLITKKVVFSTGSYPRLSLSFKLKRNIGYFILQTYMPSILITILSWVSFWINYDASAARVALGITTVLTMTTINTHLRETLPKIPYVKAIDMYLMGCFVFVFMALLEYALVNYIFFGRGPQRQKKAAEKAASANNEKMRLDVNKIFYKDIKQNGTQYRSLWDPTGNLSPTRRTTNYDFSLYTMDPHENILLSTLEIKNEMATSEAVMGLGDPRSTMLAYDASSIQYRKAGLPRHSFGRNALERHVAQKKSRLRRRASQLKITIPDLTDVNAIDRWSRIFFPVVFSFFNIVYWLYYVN
Sequence of γ-aminobutyric acid type A receptor (GABAAR) α1β2γ2s (P18507 40-475 partner): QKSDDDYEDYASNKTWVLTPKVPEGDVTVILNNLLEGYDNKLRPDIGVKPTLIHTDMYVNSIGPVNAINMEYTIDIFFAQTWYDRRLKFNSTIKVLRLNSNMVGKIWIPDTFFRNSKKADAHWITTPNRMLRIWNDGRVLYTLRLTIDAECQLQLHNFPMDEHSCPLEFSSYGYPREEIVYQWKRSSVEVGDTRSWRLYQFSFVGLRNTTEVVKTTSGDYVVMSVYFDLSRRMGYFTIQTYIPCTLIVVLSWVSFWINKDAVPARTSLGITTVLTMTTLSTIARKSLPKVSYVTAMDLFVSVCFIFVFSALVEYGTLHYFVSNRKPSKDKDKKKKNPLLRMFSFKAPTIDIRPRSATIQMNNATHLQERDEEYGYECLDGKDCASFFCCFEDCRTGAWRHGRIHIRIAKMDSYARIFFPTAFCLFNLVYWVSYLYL

Sequence of N-methyl-D-aspartate receptor (NMDAR) NR1/NR2B (Q13224 27-1484, other chains not shown): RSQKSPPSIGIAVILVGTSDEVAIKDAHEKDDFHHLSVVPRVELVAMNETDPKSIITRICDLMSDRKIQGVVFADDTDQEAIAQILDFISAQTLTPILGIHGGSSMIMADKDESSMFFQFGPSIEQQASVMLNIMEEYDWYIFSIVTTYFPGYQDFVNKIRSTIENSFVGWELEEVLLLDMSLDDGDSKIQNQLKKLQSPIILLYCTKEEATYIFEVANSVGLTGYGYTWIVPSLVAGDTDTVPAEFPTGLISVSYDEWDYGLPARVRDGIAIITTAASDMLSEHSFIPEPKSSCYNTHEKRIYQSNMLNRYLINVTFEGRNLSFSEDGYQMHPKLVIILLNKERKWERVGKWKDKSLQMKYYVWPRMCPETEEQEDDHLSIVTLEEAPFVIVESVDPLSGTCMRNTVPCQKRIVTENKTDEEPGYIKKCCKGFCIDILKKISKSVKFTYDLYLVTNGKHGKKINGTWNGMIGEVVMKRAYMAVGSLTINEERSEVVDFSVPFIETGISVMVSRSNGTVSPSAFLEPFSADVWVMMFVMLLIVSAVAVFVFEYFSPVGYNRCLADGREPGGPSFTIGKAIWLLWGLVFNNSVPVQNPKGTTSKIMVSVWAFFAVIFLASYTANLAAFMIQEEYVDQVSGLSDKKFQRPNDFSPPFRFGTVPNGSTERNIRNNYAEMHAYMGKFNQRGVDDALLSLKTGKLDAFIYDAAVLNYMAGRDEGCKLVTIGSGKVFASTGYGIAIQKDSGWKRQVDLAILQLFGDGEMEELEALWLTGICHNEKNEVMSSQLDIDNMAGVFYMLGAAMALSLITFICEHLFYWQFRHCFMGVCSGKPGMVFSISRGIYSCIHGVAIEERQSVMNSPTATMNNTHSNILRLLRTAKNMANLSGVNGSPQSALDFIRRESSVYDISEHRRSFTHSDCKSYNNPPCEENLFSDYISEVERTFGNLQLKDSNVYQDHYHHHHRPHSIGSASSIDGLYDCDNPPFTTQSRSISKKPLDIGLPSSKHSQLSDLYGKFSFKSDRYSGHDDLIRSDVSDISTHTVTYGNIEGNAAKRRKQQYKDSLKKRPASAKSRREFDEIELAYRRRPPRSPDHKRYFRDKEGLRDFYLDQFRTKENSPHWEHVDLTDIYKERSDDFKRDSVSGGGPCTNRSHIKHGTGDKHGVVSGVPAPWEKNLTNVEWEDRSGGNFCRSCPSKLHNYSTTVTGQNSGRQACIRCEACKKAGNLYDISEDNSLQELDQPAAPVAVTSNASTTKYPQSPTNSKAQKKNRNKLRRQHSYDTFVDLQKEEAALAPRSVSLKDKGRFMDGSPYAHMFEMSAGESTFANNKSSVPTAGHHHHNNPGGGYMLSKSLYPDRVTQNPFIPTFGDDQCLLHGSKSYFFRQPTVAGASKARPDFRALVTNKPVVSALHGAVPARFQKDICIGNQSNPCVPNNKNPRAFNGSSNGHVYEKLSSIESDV

| Structure (SMILES) | IC50 [1] [µM] | whole-cell patch clamp, shift of GABA EC50 [2] |
| --- | --- | --- |
| FC(F)OC(Cl)C(F)(F)F (stereo not drawn) [ISO, isoflurane] | 2400 |  |
| c1ccccc1 [benzene] | 340 ± 40 |  |
| ClC(Cl)Cl [chloroform] |  | Both halothane and chloroform decreased the GABA EC50 in a dose dependent and saturable manner |
